Test results taken from patent US8962793B2, “ErbB interface peptidomimetics and methods of use thereof” (The Trustees of the University of Pennsylvania, priority 2001, dated 2015).
Bridge positions count the residues as written; N and C are the ends. Peptide text beside a SMILES is read from it.

Columns and labels:
ErbB1 = target: T1, ErbB1 (Homo sapiens, UniProt P00533); test: Surface plasmon resonance (Biacore) binding to immobilized ErbB1 extracellular domain; details: immobilized extracellular domain, surface plasmon resonance; read-out: KD (μM) ErbB1
T1 construct: gift of Dr. Mark A. Lemmon, University of Pennsylvania School of Medicine
Method: (§1) The designed erbB peptides were tested for binding to erbB receptors using surface plasmon resonance (Biacore) technology (described supra) using soluble erbB-1 and erbB-3. The response was plotted in real time in the form of sensorgram curves.
(§2) Binding experiments were performed with the surface plasmon resonance based biosensor instrument Biacore 3000 (Biacore AB, Uppsala, Sweden), at 25° C. […] (erbB2) and Dr. Mark A. Lemmon, Department of Biochemistry and Biophysics, University of Pennsylvania School of Medicine (erbB1 and erbB3). Immobilization of the erbB receptors in the sensor surface was performed following the standard amine coupling procedure according to manufacturer's instructions. Briefly, 35 μl of a solution containing 0.2 M N-ethyl-N′-(dimethylaminopropyl) carbodiimide (EDC) and 0.05 M N-hydroxysuccinimide (NHS), were injected at a flow rate of 5 μl/min to activate carboxyl groups on the sensor chip surface. Receptors (40 ng/ml in 10 mM NaOAc buffer, pH 5.0) were flowed over the chip surface at a flow rate of 20 μl/min until the desired level bound protein was reached. Unreacted protein was washed out and unreacted activated groups were blocked by the injection of 35 μl of 1 M ethanolamine at 5 μl/min. […] A reference surface was generated simultaneously under the same conditions but without receptor injection and used as a blank to correct for instrument and buffer artifacts. Peptides were injected at variable concentrations at 20 μl/min flow rate and binding to the receptors immobilized on the chip was monitored in real time. Each sensorgram consists of an association phase (first 240 s), reflecting binding of the injected peptide to the receptor, followed by a dissociation phase (300 s), during which the running buffer is passed over the chip and the bound peptide is being washed off the receptor surface.

ErbB2 = target: T2, ErbB2 (Homo sapiens, UniProt P04626); test: Surface plasmon resonance (Biacore) binding to immobilized ErbB2 extracellular domain; details: immobilized extracellular domain, surface plasmon resonance; read-out: KD (μM) ErbB2
T2 construct: provided by Dr. Che Law, Xcyte Therapeutics, Seattle
Method: as §1, with “curves. Dissociation constants (Kd) were determined as described (Park, et al. 2000, Nat. Biotechnol. 18:194-198).” for “curves.”
A sensorgram for binding of B2-S22-APE peptide to erbB receptors immobilized on the sensor chip was performed.
as §2

ErbB3 = target: T3, ErbB3 (Homo sapiens, UniProt P21860); test: Surface plasmon resonance (Biacore) binding to immobilized ErbB3 extracellular domain; details: immobilized extracellular domain, surface plasmon resonance; read-out: KD (μM) ErbB3
T3 construct: gift of Dr. Mark A. Lemmon, University of Pennsylvania School of Medicine
Method: as §1, §2

[1] = target: T4, erbB3-erbB1 heteromerization (Homo sapiens, UniProt P00533); test: SPR inhibition of HRGβ1-induced binding of ErbB3 to immobilized ErbB1; details: peptide 10 μm, ErbB3 300 nm, HRGβ1 5 μM
T4 construct: the ectodomains of erbB receptors were immobilized on the surface chip; erbB1 and erbB3: gift of Dr. Mark A. Lemmon
Method: (§3) The effect of cysteine-knot mimetics on receptor self-associations, was examined using a Biacore assay in which the ectodomains of erbB receptors were immobilized on the surface chip and the ectodomain of erbB3 was injected at 300 nM concentrations either alone or in the presence of 5 μM hereglunin HRGβ1.
(§4) The effect of the erbB peptides on heregulin-induced receptor self-associations was studied by preinjecting them at 10 μM followed by injection of erbB3-HRGβ1 (FIG. 4; 1B, 2B, 3B).
as §2

[2] = target: T5, erbB3-erbB2 heteromerization (Homo sapiens, UniProt P04626); test: SPR inhibition of HRGβ1-induced binding of ErbB3 to immobilized ErbB2; details: peptide 10 μm, ErbB3 300 nm, HRGβ1 5 μM
T5 construct: the ectodomains of erbB receptors were immobilized on the surface chip; erbB2: Dr. Che Law, Xcyte Therapeutics; erbB3: Dr. Mark A. Lemmon
Method: as §3, §4, §2

[3] = target: T6, erbB3-erbB3 homomerization (Homo sapiens, UniProt P21860); test: SPR inhibition of HRGβ1-induced binding of ErbB3 to immobilized ErbB3; details: peptide 10 μm, ErbB3 300 nm, HRGβ1 5 μM
T6 construct: the ectodomains of erbB receptors were immobilized on the surface chip; erbB3: gift of Dr. Mark A. Lemmon
Method: as §3, §4, §2

[4] = target: T7, erbB2-erbB4 receptor heteromerization in the 32D-E2/E4 cells (Homo sapiens, UniProt P04626); test: Chemical cross-linking and immunoblotting of heregulin-induced receptor dimerization in 32D-E2/E4 cells; format: cell-based; details: dose-dependent, FIG. 5B, read-out: apparent IC50 of inhibition of receptor dimerization
T7 construct: dimerization of native full-length ErbB receptors was studied using the 32D cell lines transfected with different erbB receptors; host or cells: 32D cells (32D-E2/E4)
Method: Effect of the ErbB peptides on biochemically defined dimerization of native full-length ErbB receptors was studied using the 32D cell lines transfected with different erbB receptors. 32D-E1 cells were transfected with erbB1; 32D-E2/E3 with erbB2 and erbB3; and 32D-E2/E4 with erbB2 and erbB4.
32D cell transfectants with ErbB receptors (gift from Dr. Jacalyn H. Pierce, National Cancer Institute) were grown in RPMI 1640, 10% FBS and 5% WEHI medium (GenoQuest, Interlukin-3 supplement) and respective antibiotics, i.e. 32D-E1 (gptr), 32D-E2/E3 (neor/gptr) and 32D-E2/E4 (neor/gptr) (29). The WEHI medium was withdrawn and cells were pre-incubated with ErbB peptides for 2 hours at 37° C. before adding 10 μg/ml EGF (for 32D-E1, Collaborative Biomedical Products) or 10 μg/ml HRG 1 (for 32D-E2/E3 or 32D E2/E4, R&D Systems) and further incubated at 37° C. for 24-48 hours. The cell viability was detected with propidium iodide staining followed by flow cytometry quantification. For the cross-linking analysis, approximately 2×10^6 cells were suspended in RPMI 1640 medium containing 0.1% BSA and 10 mM HEPES, and pre-incubated with ErbB peptides for 2 hours at 37° C. before adding 10 μg/ml EGF or 10 μg/ml Heregulin-β1 EGF domain and further incubated at 37° C. for 10-15 minutes. Cells were rinsed with PBS and incubated in 2 mM BS^3/PBS at 4° C. for 45 minutes. […]

T3 sequence (P21860 20-643 limits assumed): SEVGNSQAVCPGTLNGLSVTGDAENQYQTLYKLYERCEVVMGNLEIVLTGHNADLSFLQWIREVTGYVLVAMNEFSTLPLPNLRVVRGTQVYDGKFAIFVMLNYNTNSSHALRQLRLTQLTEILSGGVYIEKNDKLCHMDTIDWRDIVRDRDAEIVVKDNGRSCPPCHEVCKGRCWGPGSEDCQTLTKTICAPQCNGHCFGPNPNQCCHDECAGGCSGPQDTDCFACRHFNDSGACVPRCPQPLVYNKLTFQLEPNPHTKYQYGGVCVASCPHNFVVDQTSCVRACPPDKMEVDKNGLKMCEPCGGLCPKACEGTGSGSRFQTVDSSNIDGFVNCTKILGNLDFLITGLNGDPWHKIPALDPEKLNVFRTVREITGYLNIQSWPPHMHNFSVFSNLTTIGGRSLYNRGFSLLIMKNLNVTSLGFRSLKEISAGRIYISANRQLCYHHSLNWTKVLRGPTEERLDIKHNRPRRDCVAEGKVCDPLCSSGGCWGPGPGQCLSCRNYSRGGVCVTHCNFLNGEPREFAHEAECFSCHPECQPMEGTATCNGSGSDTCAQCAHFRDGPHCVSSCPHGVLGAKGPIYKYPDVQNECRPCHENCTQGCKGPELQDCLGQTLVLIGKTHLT
T6 sequence (P21860 20-643 limits assumed): as above
T7 sequence (P04626 23-1255, one chain of several): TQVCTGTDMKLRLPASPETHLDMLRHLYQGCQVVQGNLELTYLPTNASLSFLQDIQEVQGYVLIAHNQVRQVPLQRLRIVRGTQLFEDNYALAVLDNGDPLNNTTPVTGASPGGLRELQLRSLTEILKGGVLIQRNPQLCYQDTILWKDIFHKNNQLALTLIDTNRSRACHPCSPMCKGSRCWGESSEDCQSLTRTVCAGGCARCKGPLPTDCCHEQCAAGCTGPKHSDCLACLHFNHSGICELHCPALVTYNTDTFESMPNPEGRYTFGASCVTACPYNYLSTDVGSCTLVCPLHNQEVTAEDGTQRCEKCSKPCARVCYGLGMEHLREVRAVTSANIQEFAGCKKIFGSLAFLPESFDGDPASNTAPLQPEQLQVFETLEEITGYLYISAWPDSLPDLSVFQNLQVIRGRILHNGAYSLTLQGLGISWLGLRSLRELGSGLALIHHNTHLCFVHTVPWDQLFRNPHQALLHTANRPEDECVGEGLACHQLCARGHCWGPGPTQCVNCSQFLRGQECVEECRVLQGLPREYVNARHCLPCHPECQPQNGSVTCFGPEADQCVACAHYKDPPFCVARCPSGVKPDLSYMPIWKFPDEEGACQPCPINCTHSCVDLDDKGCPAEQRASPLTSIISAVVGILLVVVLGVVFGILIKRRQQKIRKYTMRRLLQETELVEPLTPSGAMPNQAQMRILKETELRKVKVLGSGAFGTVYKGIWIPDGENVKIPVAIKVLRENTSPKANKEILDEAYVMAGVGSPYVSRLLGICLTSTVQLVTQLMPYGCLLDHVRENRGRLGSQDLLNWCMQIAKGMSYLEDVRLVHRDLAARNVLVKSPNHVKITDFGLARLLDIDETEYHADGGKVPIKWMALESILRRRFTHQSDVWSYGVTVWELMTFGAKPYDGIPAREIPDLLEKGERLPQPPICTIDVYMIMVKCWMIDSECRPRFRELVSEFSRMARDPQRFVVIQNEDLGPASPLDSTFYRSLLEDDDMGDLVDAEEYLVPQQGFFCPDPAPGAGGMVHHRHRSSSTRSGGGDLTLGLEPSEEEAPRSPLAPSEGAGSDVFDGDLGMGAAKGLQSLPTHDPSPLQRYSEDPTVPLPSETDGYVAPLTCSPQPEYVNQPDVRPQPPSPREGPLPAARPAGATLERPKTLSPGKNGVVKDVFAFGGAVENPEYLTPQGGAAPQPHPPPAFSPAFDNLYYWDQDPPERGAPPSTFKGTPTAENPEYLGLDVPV
T2 sequence (P04626 23-652 limits assumed): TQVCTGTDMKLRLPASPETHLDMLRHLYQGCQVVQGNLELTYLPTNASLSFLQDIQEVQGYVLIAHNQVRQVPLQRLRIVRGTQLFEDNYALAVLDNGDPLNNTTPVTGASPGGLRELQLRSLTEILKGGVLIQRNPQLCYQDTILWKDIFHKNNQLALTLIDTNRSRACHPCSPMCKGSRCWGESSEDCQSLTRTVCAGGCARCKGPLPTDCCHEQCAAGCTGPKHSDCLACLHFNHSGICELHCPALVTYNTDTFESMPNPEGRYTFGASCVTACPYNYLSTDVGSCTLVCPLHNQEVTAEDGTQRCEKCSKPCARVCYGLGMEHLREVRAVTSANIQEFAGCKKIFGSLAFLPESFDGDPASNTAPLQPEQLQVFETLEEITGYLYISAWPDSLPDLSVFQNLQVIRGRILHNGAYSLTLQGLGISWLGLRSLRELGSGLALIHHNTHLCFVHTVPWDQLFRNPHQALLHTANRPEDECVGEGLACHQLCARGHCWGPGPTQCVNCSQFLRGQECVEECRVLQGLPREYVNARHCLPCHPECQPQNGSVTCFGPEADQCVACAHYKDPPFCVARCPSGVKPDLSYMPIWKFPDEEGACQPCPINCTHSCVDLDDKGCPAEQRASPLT
T5 sequence (P04626 23-652 limits assumed, one chain of several): as the sequence (P04626 23-652 limits assumed) above
T4 sequence (P00533 25-645 limits assumed, one chain of several): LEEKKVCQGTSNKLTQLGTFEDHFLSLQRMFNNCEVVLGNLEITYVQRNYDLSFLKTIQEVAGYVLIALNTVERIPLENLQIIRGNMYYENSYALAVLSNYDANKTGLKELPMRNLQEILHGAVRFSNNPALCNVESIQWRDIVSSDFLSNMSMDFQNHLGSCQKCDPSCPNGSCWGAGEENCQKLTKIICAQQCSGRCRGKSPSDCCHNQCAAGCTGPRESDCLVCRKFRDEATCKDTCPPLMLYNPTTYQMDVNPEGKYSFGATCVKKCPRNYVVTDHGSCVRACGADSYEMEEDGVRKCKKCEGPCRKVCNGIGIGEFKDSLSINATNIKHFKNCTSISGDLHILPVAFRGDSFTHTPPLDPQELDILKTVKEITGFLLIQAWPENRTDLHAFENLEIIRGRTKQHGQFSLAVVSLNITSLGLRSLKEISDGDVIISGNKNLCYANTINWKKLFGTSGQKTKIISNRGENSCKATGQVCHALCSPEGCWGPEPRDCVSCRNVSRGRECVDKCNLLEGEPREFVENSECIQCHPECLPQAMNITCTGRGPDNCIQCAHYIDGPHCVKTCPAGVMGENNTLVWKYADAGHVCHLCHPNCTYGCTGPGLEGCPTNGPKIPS
T1 sequence (P00533 25-645 limits assumed): as the sequence (P00533 25-645 limits assumed, one chain of several) above

Kd (ErbB1): 0.407 µM | Kd (ErbB2): 0.302 µM | Kd (ErbB3): 0.429 µM | Percent Inhibition ErbB1 [1]: 78.4% | Percent Inhibition ErbB2 [2]: 82.5% | Percent Inhibition ErbB3 [3]: 61.7% | IC50 [4]: 800 nM
SMILES: C[C@@H]1NC(=O)CNC(=O)[C@H](CCC(=O)O)NC(=O)[C@H](CCC(=O)O)NC(=O)[C@H](CC(=O)O)NC(=O)[C@@H]2CCCN2C(=O)[C@H](Cc2ccccc2)NC(=O)[C@@H](NC(=O)[C@@H](N)Cc2ccc(O)cc2)CSSC[C@@H](C(=O)N[C@@H](Cc2ccc(O)cc2)C(N)=O)NC1=O [B2-S22-AFA, YCFPDEEGACY] (H-YCFPDEEGACY-NH2; disulfide 2-10)
